According to patent US8999970B2, “Administration of an anti-obesity compound to individuals with renal impairment” (Arena Pharmaceuticals, Inc., priority 2010, dated 2015):
Entries after “also recorded” stand apart in the source; their conditions may differ.

Assay: Dynamic moisture (vapor) sorption of Form III
Assay type: physicochemical

**Q.** With `C[C@H]1CNCCc2ccc(Cl)cc21.C[C@H]1CNCCc2ccc(Cl)cc21.Cl.Cl.O` [(R)-8-chloro-1-methyl-2,3,4,5-tetrahydro-1H-3-benzazepine hydrochloride hemihydrate, Form III] as the compound, how does the “Hygroscopicity (DMS / DVS)” value read?
**A.** The value was “substantially non-hygroscopic; also recorded: FIG. 9: non-hygroscopic”.

**Q.** And the Water adsorbed (90% RH)?
**A.** The Water adsorbed was “less than 0.5 wt %”.
